What was measured:
[1] = test system: PRPK; assay: SSL-induced phosphorylation of PRPK in JB6 cells; format: cell-based; conditions: increasing concentrations added to the medium
Experimental: The effect of the binding of rocuronium bromide to PRPK on SSL-induced phosphorylation of PRPK was evaluated. FIG. 13C is a photograph illustrating a chromatographic plate showing the reduction in SSL-induced phosphorylation of PRPK in JB6 cells with increasing concentrations of rocuronium bromide, added into the medium. Thus, rocuronium bromide inhibited sUVL-induced phosphorylation of PRPK.
The effect of the binding of betamethasone 17-valerate to PRPK on SSL-induced phosphorylation of PRPK was evaluated. FIG. 14C is a photograph illustrating a chromatographic plate showing the reduction in SSL-induced phosphorylation of PRPK in JB6 cells with an increasing concentration of betamethasone 17-valerate, added to the medium. Thus, betamethasone 17-valerate inhibited SSL-induced phosphorylation of PRPK.

[2] = test system: SSL-exposed skin of SKH-1 hairless mouse; assay: Acute SSL-induced skin inflammation in SKH-1 hairless mouse skin (H&E, p-PRPK staining and blot); format: in vivo; conditions: for sUV-induced increase in PRPK expression / sUV-induced increase in epidermal thickness: topical in cream carrier, 24 h after SSL irradiation, vs untreated sUV-exposed group; for phosphorylation of PRPK in sUV-treated mouse skin / sUV-induced phosphorylation on increasing the concentration: topical treatment; for sUV-induced phosphorylation on increasing the concentration: higher concentration
Experimental: PRPK phosphorylation induced by sUV is a potent stimulator of skin inflammation. Inflammation contributes to tumor development and progression and metastasis often arises in acute and chronic inflammatory skin conditions and increased epidermal thickness is a sign of sUV-induced inflammatory responses. To examine the effect of rocuronium bromide on SSL-induced acute skin inflammation, H&E (haemotoxylin and eosin) staining on SSL-exposed skin tissues of SKH-1 hairless mouse skin was performed. FIG. 15 is a photographic array comparing epidermal thickness in mouse skin samples exposed to one or more of SSL, rocuronium bromide, and betamethasone 17-valerate. FIG. 16 is a photographic array comparing expression of phosphorylated PRPK in immunologically stained mouse skin samples exposed to one or more of SSL, rocuronium bromide, and […]. A cream carrier was used to apply the rocuronium bromide or betamethasone 17-valerate. […] In contrast, application of rocuronium bromide or betamethasone-17-valerate attenuated sUV-induced increases in epidermal thickness and PRPK expression compared to the untreated sUV-exposed group (FIGS. 15 and 16).
FIG. 17 is a photograph illustrating a chromatographic plate comparing the phosphorylation of PRPK in mouse skin tissue samples treated or not treated with rocuronium bromide and exposed or not exposed to SSL. FIG. 18 is a photograph illustrating a chromatographic plate comparing the phosphorylation of PRPK in mouse skin tissue samples treated or not treated with betamethasone 17-valerate and exposed or not exposed to SSL. Topical treatment with rocuronium bromide (FIG. 17) or betamethasone-17-valerate (FIG. 18) decreased phosphorylation of PRPK in sUV-treated mouse skin.

[3] = test system: cyclobutane pyrimidine dimers (CPD); assay: Cyclobutane pyrimidine dimer (CPD) formation in skin of SKH1 hairless mice exposed to acute SSL; format: in vivo, mouse; conditions: topical 0.1% or 1%
Experimental: The effect of rocuronium bromide treatment and betamethasone 17-valerate treatment on the formation of cyclobutene pyrimidine dimers was evaluated. sUV-induced DNA damage, predominantly observed as the formation of cyclobutane pyrimidine dimers (CPD), is recognized as an important molecular trigger for the initiation of sUV-induced immunosuppression and carcinogenesis in the skin. FIG. 19A is a chart comparing effect of rocuronium bromide treatment and betamethasone 17-valerate treatment on the formation of cyclobutene pyrimidine dimers in skin tissues from SKH1 hairless mice exposed to acute SSL. FIG. 19C is a photographic array comparing amount of CPD in immunologically stained control mouse skin samples. FIG. 19D is a photographic array comparing amount of CPD in immunologically stained mouse skin samples exposed only to a vehicle. FIG. 19E is a photographic array comparing amount of CPD in immunologically stained mouse skin samples exposed to rocuronium bromide alone. FIG. 19F is a photographic array comparing amount of CPD in immunologically stained mouse skin samples exposed to betamethasone 17-valerate alone. FIG. 19G is a photographic array comparing amount of CPD in immunologically stained mouse skin samples exposed to SSL alone. FIG. 19H is a photographic array comparing amount of CPD in immunologically stained mouse skin samples exposed to SSL with the vehicle. […]

[4] = target: T1, wildtype PRPK recombinant GST protein (Homo sapiens, UniProt Q96S44); assay: In vitro binding assay, drug-conjugated Sepharose 4B beads with GST-PRPK; conditions: pull-down with drug-conjugated Sepharose 4B beads
T1 sequence (Q96S44 1-253): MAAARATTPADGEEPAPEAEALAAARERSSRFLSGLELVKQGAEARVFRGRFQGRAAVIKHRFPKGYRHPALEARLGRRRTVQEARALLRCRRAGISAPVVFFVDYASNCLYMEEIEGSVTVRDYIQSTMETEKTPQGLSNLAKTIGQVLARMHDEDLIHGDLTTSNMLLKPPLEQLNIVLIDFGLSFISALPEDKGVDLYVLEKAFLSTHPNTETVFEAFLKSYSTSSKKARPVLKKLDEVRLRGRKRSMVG
Experimental: (§1) The interaction between rocuronium bromide and PRPK, and the inhibition of PRPK phosphorylation by rocuronium bromide was evaluated. In vitro and ex vivo binding assays were conducted using GST-PRPK or A431 cell lysates and rocuronium bromide-conjugated Sepharose 4B beads. FIG. 13A is a photograph illustrating a chromatographic plate showing the interaction and binding of PRPK with rocuronium bromide in A431 cells. FIG. 13B is a photograph illustrating a chromatographic plate showing the interaction and binding of rocuronium bromide with wildtype PRPK recombinant GST protein.
as §1, with “betamethasone 17-valerate” for “rocuronium bromide”, “using recombinant” for “using”, “betamethasone 17-valerate-conjugated” for “rocuronium bromide-conjugated”, “14A” for “13A”, “14B” for “13B”

| SMILES | SSL-induced phosphorylation of PRPK [1] | sUV-induced increase in PRPK expression [2] | sUV-induced increase in epidermal thickness [2] | phosphorylation of PRPK in sUV-treated mouse skin [2] | sUV-induced phosphorylation on increasing the concentration [2] | sUV-induced CPD production [3] | binding to GST-PRPK [4] |
| --- | --- | --- | --- | --- | --- | --- | --- |
| C=CC[N+]1([C@H]2C[C@H]3[C@@H]4CC[C@H]5C[C@H](O)[C@@H](N6CCOCC6)C[C@]5(C)[C@H]4CC[C@]3(C)[C@H]2OC(C)=O)CCCC1 [rocuronium bromide] | inhibited | attenuated | attenuated | decreased | further reduced | reduced | binds |
| CCCCC(=O)O[C@]1(C(=O)CO)[C@@H](C)C[C@H]2[C@@H]3CCC4=CC(=O)C=C[C@]4(C)[C@@]3(F)[C@@H](O)C[C@@]21C [betamethasone 17-valerate] | inhibited | attenuated | attenuated | decreased | further reduced | reduced | binds |

From patent US12233073B2, “Skin care formulations and skin cancer treatment” (Regents of the University of Minnesota, priority 2017, dated 2025)
